From ChEMBL document CHEMBL5352423, “Discovery of potent human dihydroorotate dehydrogenase inhibitors based on a benzophenone scaffold” (Eur J Med Chem, 2022)
Values after ≈ are worked out from the molar mass of the structure shown. Active and inactive are the calls of the source. The calls are words filed in the database; no cut-off is given here.

Experiments:
[1] = Toxicity in NOD-SCID mouse xenografted with human Raji cells assessed as death at 1.5 mg/kg, po administered for 24 days; format: organism-based; conditions: in vivo, 576 h, time 24 day
[2] = Toxicity in NOD-SCID mouse xenografted with human HCT-116 cells assessed as change in body weight at 1.5 mg/kg, po administered for 24 days; format: organism-based; conditions: in vivo, 576 h, time 24 day
Raji [3] = assay: animal or person; conditions: Mus musculus, po, 576 h, read-out: TGI
Description: Antitumor activity against human Raji cells xenografted in NOD-SCID mouse assessed as tumor growth inhibition at 1.5 mg/kg, po administered for 24 days relative to control

[4] = Toxicity in NOD-SCID mouse xenografted with human Raji cells assessed as change in body weight at 1.5 mg/kg, po administered for 24 days; format: organism-based; conditions: in vivo, 576 h, time 24 day
[5] = Toxicity in NOD-SCID mouse xenografted with human HCT-116 cells assessed as splenomegaly at 1.5 mg/kg, po administered for 21 days; format: organism-based; conditions: in vivo, 504 h, time 21 day
Mus musculus = assay: Immunosuppressive activity in NOD-SCID mouse xenografted with human HCT-116 cells at 1.5 mg/kg, po for 21 days; format: functional, organism-based; conditions: time 21.0 day
HCT-116 [6] = assay: Antitumor activity against human HCT-116 cells xenografted in NOD-SCID mouse assessed as tumor growth inhibition at 1.5 mg/kg, po administered for 24 days relative to control; format: functional; conditions: HCT-116, 576 h, time 24 day, read-out: TGI
HCT-116 [7] = assay: Induction of cell cycle arrest in human HCT-116 cells assessed as accumulation cells in S-phase at 0.25 uM for 24 hrs by PI/RNAse staining method (reference value: 30.2%); format: functional
[8] = Toxicity in BALB/c mouse assessed as histopathological changes in liver administered at 500 mg/kg, po for 14 days; format: organism-based; conditions: in vivo, 336 h, time 14 day
Raji [9] = assay: Induction of cell cycle arrest in human Raji cells assessed as accumulation cells in S-phase at 0.125 uM for 24 hrs by PI/RNAse staining method (reference value: 42.8%); format: functional
HCT-116 [10] = assay: Antiproliferative activity against human HCT-116 cells incubated for 96 hrs by MTT assay; format: functional, cell-based; conditions: HCT-116, 96 h
Raji [11] = assay: Induction of cell cycle arrest in human Raji cells assessed as accumulation cells in S-phase at 0.25 uM for 24 hrs by PI/RNAse staining method (reference value: 42.8%); format: functional
U-937 = assay: Antiproliferative activity against human U-937 cells incubated for 96 hrs by MTT assay; format: functional, cell-based; conditions: U-937, 96 h
[12] = Aqueous solubility of compound; format: physicochemical; conditions: buffer
Raji [13] = assay: Induction of cell cycle arrest in human Raji cells assessed as accumulation cells in S-phase at 0.0625 uM for 24 hrs by PI/RNAse staining method (reference value: 42.8%); format: functional
[14] = Lipophilicity, logP of compound; format: physicochemical; conditions: octanol/water
HCT-116 [15] = assay: Antiproliferative activity against human HCT-116 cells assessed as inhibition of cell growth at 0.0125 to 0.2 uM; format: functional, cell-based; conditions: dose 0.0125-0.2 µM
[16] = Toxicity in BALB/c mouse assessed as histopathological changes in kidney administered at 500 mg/kg, po for 14 days; format: organism-based; conditions: in vivo, 336 h, time 14 day
[17] = target: T1, Dihydroorotate dehydrogenase (quinone), mitochondrial (Homo sapiens, UniProt Q02127); assay: Inhibition of human DHODH incubated for 30 mins
T1 sequence (Q02127 whole entry): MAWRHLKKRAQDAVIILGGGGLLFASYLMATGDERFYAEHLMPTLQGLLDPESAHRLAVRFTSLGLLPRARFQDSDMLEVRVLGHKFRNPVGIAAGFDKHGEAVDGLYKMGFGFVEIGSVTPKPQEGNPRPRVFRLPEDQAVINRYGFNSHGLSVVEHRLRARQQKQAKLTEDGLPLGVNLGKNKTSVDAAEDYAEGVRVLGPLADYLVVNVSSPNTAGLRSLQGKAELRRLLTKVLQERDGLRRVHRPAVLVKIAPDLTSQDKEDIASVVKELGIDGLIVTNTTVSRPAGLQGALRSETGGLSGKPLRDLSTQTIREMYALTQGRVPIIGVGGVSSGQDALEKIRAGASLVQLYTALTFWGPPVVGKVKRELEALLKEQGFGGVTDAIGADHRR

[18] = Toxicity in BALB/c mouse assessed as change in blood MPV administered at 500 mg/kg, po for 14 days; format: organism-based; conditions: in vivo, 336 h, time 14 day
Raji [19] = assay: Antiproliferative activity against human Raji cells assessed as inhibition of cell growth at 0.0125 uM relative to control; format: functional
Raji [20] = assay: Rescue of cell viability in human Raji cells assessed cell growth inhibition rate at 0.0125 to 0.2 uM in presence of uridine; format: functional; conditions: dose 0.0125-0.2 µM
[21] = Toxicity in BALB/c mouse assessed as decrease in alkaline phosphatase administered at 500 mg/kg, po for 14 days; format: organism-based; conditions: in vivo, 336 h, time 14 day
Raji [22] = assay: Antitumor activity against human Raji cells xenografted in NOD-SCID mouse assessed as tumor growth inhibition at 30 mg/kg, po administered for 24 days relative to control; format: functional; conditions: 576 h, time 24 day, read-out: TGI
[23] = Cytotoxicity against human HL7702 cells incubated for 96 hrs by MTT assay; format: toxicity, cell-based, L02
HCT-116 [24] = assay: Induction of cell cycle arrest in human HCT-116 cells assessed as accumulation cells in S-phase at 0.0625 uM for 24 hrs by PI/RNAse staining method (reference value: 30.2%); format: functional
[25] = Toxicity in BALB/c mouse assessed as change in blood lymphocytes administered at 500 mg/kg, po for 14 days; format: organism-based, Lymphocyte; conditions: in vivo, 336 h, time 14 day
[26] = Cytotoxicity against human NCM460 cells incubated for 96 hrs by MTT assay; format: toxicity, cell-based
[27] = Toxicity in BALB/c mouse assessed as change in blood MCH administered at 500 mg/kg, po for 14 days; format: organism-based; conditions: in vivo, 336 h, time 14 day
Raji [28] = assay: Antiproliferative activity against human Raji cells assessed as inhibition of cell growth; format: functional, cell-based; conditions: dose 0.0125-0.2 µM
[29] = Toxicity in BALB/c mouse assessed as lethal dose administered orally for 14 days; conditions: in vivo, route po, time 14 day
SUD4 = assay: Antiproliferative activity against human SU-DHL-4 cells incubated for 96 hrs by MTT assay; format: functional, cell-based; conditions: SU-DHL-4, 96 h
HCT-116 [30] = assay: Antitumor activity against human HCT-116 cells xenografted in NOD-SCID mouse assessed as tumor growth inhibition at 30 mg/kg, po administered for 24 days relative to control; format: functional; conditions: HCT-116, 576 h, time 24 day, read-out: TGI
[31] = Toxicity in BALB/c mouse assessed as change in blood HCT administered at 500 mg/kg, po for 14 days; format: organism-based; conditions: in vivo, 336 h, time 14 day
Raji [32] = assay: Antiproliferative activity against human Raji cells assessed as inhibition of cell growth at 0.1 uM relative to control; format: functional
Raji [33] = assay: Antiproliferative activity against human Raji cells incubated for 96 hrs by MTT assay; format: functional, cell-based
Raji [34] = assay: Antiproliferative activity against human Raji cells assessed as inhibition of cell growth at 0.05 uM relative to control; format: functional
Kasumi 1 = assay: Antiproliferative activity against human Kasumi 1 cells incubated for 96 hrs by MTT assay; format: functional, cell-based; conditions: Kasumi 1, 96 h
[35] = Toxicity in BALB/c mouse assessed as histopathological changes in spleen administered at 500 mg/kg, po for 14 days; format: organism-based; conditions: in vivo, 336 h, time 14 day
[36] = target: T1, Dihydroorotate dehydrogenase (quinone), mitochondrial; assay: Inhibition of human DHODH at 1 uM for 30 mins relative to control
[37] = Toxicity in BALB/c mouse assessed as change in blood MCHC administered at 500 mg/kg, po for 14 days; format: organism-based; conditions: in vivo, 336 h, time 14 day
[38] = Toxicity in BALB/c mouse assessed as change in blood RBC administered at 500 mg/kg, po for 14 days; format: organism-based; conditions: in vivo, 336 h, time 14 day
[39] = Selectivity index ratio of IC50 for human HL7702 cells to IC50 for human Raji cells; format: toxicity; conditions: HL7702 cells and Raji cells, read-out: Ratio IC50
[40] = Toxicity in BALB/c mouse assessed as histopathological changes in lung administered at 500 mg/kg, po for 14 days; format: organism-based; conditions: in vivo, 336 h, time 14 day
[41] = Toxicity in BALB/c mouse assessed as change in blood MCV administered at 500 mg/kg, po for 14 days; format: organism-based; conditions: in vivo, 336 h, time 14 day
HCT-116 [42] = assay: Induction of cell cycle arrest in human HCT-116 cells assessed as accumulation cells in S-phase at 0.125 uM for 24 hrs by PI/RNAse staining method (reference value: 30.2%); format: functional
[43] = Toxicity in NOD-SCID mouse xenografted with human Raji cells assessed as death at 30 mg/kg, po administered for 24 days; format: organism-based; conditions: in vivo, 576 h, time 24 day
[44] = Toxicity in BALB/c mouse assessed as change in blood HGB administered at 500 mg/kg, po for 14 days; format: organism-based; conditions: in vivo, 336 h, time 14 day
[45] = Toxicity in BALB/c mouse assessed as change in blood PLT administered at 500 mg/kg, po for 14 days; format: organism-based; conditions: in vivo, 336 h, time 14 day
[46] = target: T1, Dihydroorotate dehydrogenase (quinone), mitochondrial; assay: Inhibition of human DHODH at 100 nM for 30 mins relative to control
A-375 = assay: Antiproliferative activity against human A-375 cells incubated for 96 hrs by MTT assay; format: functional, cell-based; conditions: A-375, 96 h
Raji [47] = assay: Antiproliferative activity against human Raji cells assessed as inhibition of cell growth at 0.2 uM relative to control; format: functional
Raji [48] = assay: Antiproliferative activity against human Raji cells assessed as inhibition of cell growth at 0.025 uM relative to control; format: functional
[49] = Toxicity in NOD-SCID mouse xenografted with human Raji cells assessed as change in body weight at 30 mg/kg, po administered for 24 days; format: organism-based; conditions: in vivo, 576 h, time 24 day
[50] = Toxicity in BALB/c mouse assessed as change in blood RDW administered at 500 mg/kg, po for 14 days; format: organism-based; conditions: in vivo, 336 h, time 14 day
[51] = target: Voltage-gated inwardly rectifying potassium channel KCNH2 (Homo sapiens, UniProt Q12809); assay: Inhibition of human ERG; format: toxicity
Sequence of Voltage-gated inwardly rectifying potassium channel KCNH2 (Q12809 whole entry): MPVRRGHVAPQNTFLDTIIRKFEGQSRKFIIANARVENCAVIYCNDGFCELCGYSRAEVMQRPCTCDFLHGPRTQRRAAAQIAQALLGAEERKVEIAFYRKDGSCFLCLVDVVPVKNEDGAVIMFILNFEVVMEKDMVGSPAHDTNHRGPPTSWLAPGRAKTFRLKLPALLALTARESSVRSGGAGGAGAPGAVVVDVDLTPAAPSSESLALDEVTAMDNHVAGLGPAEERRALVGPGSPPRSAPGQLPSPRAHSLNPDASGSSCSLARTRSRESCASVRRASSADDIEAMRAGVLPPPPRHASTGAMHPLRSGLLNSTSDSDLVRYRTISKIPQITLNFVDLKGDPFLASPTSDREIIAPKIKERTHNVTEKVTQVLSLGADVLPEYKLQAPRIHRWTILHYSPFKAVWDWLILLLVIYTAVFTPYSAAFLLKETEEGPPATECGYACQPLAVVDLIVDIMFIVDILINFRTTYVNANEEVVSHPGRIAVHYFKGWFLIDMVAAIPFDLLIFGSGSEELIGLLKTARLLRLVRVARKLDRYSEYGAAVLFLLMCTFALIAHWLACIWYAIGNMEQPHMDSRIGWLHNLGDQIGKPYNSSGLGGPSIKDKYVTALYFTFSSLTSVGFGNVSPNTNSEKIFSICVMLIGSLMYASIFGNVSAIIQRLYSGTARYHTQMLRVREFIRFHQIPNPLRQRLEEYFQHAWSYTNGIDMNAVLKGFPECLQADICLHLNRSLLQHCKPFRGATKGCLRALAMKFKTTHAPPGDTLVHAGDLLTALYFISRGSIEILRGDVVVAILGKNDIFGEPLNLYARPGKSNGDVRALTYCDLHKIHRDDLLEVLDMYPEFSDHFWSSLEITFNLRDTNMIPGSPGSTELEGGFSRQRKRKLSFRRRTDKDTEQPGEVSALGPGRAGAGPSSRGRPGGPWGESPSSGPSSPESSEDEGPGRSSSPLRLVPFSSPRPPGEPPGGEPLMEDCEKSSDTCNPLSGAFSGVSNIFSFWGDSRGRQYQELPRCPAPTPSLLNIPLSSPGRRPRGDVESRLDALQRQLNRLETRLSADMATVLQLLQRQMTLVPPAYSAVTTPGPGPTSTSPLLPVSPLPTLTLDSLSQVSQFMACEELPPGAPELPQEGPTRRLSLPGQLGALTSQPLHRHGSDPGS

[52] = Cytotoxicity against human HCoEpiC cells incubated for 96 hrs by MTT assay; format: toxicity, cell-based
KG-1 = assay: Antiproliferative activity against human KG-1 cells incubated for 96 hrs by MTT assay; format: functional, cell-based; conditions: KG-1, 96 h
[53] = Toxicity in BALB/c mouse assessed as change in blood WBC administered at 500 mg/kg, po for 14 days; format: organism-based; conditions: in vivo, 336 h, time 14 day
[54] = Toxicity in BALB/c mouse assessed as change in blood neutrophil administered at 500 mg/kg, po for 14 days; format: organism-based; conditions: in vivo, 336 h, time 14 day

CCn1c(CO)nn(-c2cc(O[C@@H](C)C(F)(F)F)c(C(=O)Nc3c(F)cccc3Cl)cc2F)c1=O
Activity [1]: Non-Toxic | Activity [2]: Toxic | inhibition in vivo at 1.5 mg/kg (Raji [3]): 71.4% | Activity [4]: Non-Toxic | Activity [5]: Toxic | Activity (Mus musculus): Active | inhibition in vivo at 1.5 mg/kg (HCT-116 [6]): 44.4%

C/C(O)=C(\C#N)C(=O)Nc1cc(O[C@@H](C)C(F)(F)F)c(C(=O)c2ccccc2Cl)cc1F
Activity (HCT-116 [7]): 60.6% | Activity [8]: Toxic | Activity (Raji [9]): 60.6% | IC50 (HCT-116 [10]): 0.14 µM | Activity (Raji [11]): 67.1% | IC50 (U-937): 0.22 µM | solubility [12]: 61.7 µg/mL (≈ 131 µM) | Activity (Raji [13]): 54.2% | logP [14]: 2.49 | Activity (HCT-116 [15]): Active | Activity [16]: Non-Toxic | IC50 [17]: 0.0109 µM | Activity [18]: Non-Toxic | inhibition at 0.0125 µM (Raji [19]): 17% | inhibition (INH) (Raji [20]): <5% | Activity [21]: Non-Toxic | inhibition in vivo at 30 mg/kg (Raji [22]): 58.3% | IC50 at 96 h [23]: 1.1 µM | Activity (HCT-116 [24]): 44.6% | Activity [25]: Non-Toxic | IC50 at 96 h [26]: 14.2 µM | Activity [27]: Non-Toxic | inhibition (Raji [28]): Dose-Dependent Effect | LD50 at 336 h [29]: 500 mg/kg | IC50 (SUD4): 0.75 µM | inhibition in vivo at 30 mg/kg (HCT-116 [30]): 42.1% | Activity [31]: Non-Toxic | inhibition at 0.1 µM (Raji [32]): 52.2% | IC50 (Raji [33]): 0.06 µM | inhibition at 0.05 µM (Raji [34]): 36.8% | IC50 (Kasumi 1): 0.1 µM | Activity [35]: Non-Toxic | inhibition [36]: 98.4% | Activity [37]: Non-Toxic | Activity [38]: Non-Toxic | selectivity ratio [39]: 18.3 | Activity [40]: Non-Toxic | Activity [41]: Non-Toxic | Activity (HCT-116 [42]): 58.9% | Activity [43]: Non-Toxic | Activity [44]: Non-Toxic | Activity [45]: Non-Toxic | inhibition [46]: 84.2% | IC50 (A-375): 0.25 µM | inhibition at 0.2 µM (Raji [47]): 60.9% | inhibition at 0.025 µM (Raji [48]): 20.7% | Activity [49]: Non-Toxic | Activity [50]: Non-Toxic | IC50 [51]: > 100 µM | IC50 at 96 h [52]: 6.8 µM | IC50 (KG-1): 0.43 µM | Activity [53]: Non-Toxic | Activity [54]: Non-Toxic
